This note sets out measurements from patent US8580747B2, “Cyclic natriuretic peptide constructs” (Palatin Technologies, Inc., priority 2006, dated 2013).

Read-outs that look alike come from different tables or passages of the source. Bridge positions count the residues as written; N and C are the ends. Square brackets hold non-standard residues; d marks the D form. Peptide text beside a SMILES is read from it. * marks the point of attachment. Piperazin2one(3S-Bu,6R-CO) = CCCC[C@@H]1NC[C@H](C(=O)*)NC1=O; X2 = N=C(N)NCCC[C@@H]1C(=O)N[C@@H](C(N)=O)CN1*; X1 = N=C(N)NCCC[C@H]1C(=O)N[C@@H](C(N)=O)CN1*; dNle = CCCC[C@@H](N)C(=O)O; Heptanoyl = CCCCCCC(=O)*; Nle = CCCC[C@H](N)C(=O)O; Orn = NCCC[C@H](N)C(=O)O

The target in data set [1] is T1, NEP (neutral endopeptidase) (Homo sapiens, UniProt P08473).
T1 construct: purchased R&D Systems, Minneapolis, Minn; 1182-ZN
Kind of data set: hNEP resistance assay (digestion by neutral endopeptidase). The data set is classed as in vitro ADME. The settings on record: pH 7.4. As for the experimental part:
NEP resistance of various constructs of the invention was evaluated using the following experimental procedure. All constructs were diluted in 0.1 M Tris-HCL buffer (pH 7.4) to 100 μM. 40 μL of diluted constructs were added to each tube and all tubes were kept on ice. 40 μL of diluted NEP, either human recombinant NEP (R&D Systems, Minneapolis, Minn., catalogue #1182-ZN) at 8 ng/μL or mouse NEP (R&D Systems, catalog #1126-ZN) at 2.5 ng/μL, was added to each tube. The tubes were mixed gently and spun. […] At the end of the incubation time, the reaction was stopped by adding 5 μL of 10% TFA. […] The extent to which NEP was active against the constructs was then analyzed by HPLC and/or LC/MS. Data analysis included determining the percent of remaining starting material, i.e., undigested peptide construct, and the percent and sequence of each proteolytic fragment.

The conditions of data set [2]: rat, in vivo, iv.
For data set [3] the following is noted: rat, in vivo, sc.
Where [4] appears, read: human, isolated enzyme neprilysin.
Where [5] appears, read: human recombinant NEP (neutral endopeptidase), incubation with human recombinant NEP at 37° C., 1 h, read-out: hNEP % of Starting Material 1 h.
Where [6] appears, read: human recombinant NEP (neutral endopeptidase), incubation with human recombinant NEP at 37° C., 2 h, read-out: hNEP % of Starting Material 2 h.

T1 sequence (P08473 52-750 limits assumed): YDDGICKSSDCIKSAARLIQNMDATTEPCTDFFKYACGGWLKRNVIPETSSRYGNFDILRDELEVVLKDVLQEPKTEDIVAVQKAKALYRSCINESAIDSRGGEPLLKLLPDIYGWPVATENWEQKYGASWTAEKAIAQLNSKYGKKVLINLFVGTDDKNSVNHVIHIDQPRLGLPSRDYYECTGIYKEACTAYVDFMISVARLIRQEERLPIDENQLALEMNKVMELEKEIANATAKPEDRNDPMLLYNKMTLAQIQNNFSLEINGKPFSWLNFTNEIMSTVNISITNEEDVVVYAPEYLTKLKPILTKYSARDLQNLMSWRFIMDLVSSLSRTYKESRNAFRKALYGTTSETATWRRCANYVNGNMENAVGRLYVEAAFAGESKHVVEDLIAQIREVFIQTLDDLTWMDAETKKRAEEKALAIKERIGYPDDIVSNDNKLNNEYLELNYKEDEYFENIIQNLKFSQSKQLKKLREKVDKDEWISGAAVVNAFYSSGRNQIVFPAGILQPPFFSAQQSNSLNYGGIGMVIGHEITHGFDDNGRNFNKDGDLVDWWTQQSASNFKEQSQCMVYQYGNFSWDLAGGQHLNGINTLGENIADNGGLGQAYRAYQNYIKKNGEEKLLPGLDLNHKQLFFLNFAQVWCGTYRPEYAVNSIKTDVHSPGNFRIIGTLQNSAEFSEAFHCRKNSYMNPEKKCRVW

In data set [1] (setting [4]), `CCCC[C@@H]1NC[C@H](C(=O)N[C@H]2CSSC[C@@H](C(=O)N[C@@H](Cc3ccc(O)cc3)C(=O)N3C[C@H](C(N)=O)NC(=O)[C@@H]3CCCNC(=N)N)NC(=O)[C@H](CO)NC(=O)[C@H]([C@@H](C)CC)NC(=O)[C@H](CCCNC(=N)N)NC(=O)[C@H](CC(=O)O)NC(=O)[C@H](CCCC)NC(=O)[C@H](CCCNC(=N)N)NC(=O)CNC(=O)CNC(=O)[C@H](Cc3ccccc3)NC(=O)[C@H](Cc3c[nH]cn3)NC2=O)NC1=O` [1-18] ({Piperazin2one(3S-Bu,6R-CO)}-CHFGGR[Nle]DRISCY-X1; disulfide 1-12) showed a remaining at 1 h, 50 µM of 91% and a remaining at 2 h, 50 µM of 82%. Besides, in data set [2], the clearance is 55 mL/min/kg. In data set [2] (0.3 mg/kg), the AUC was determined as 0.061 µM·h, the volume of distribution (Vd) came out at 0.4 L/kg, the clearance was found to be 43 mL/min/kg and the half-life is 12 min. In data set [2] (2 mg/kg), this compound had an AUC of 0.263 µM·h, a distribution volume (Vd) of 0.7 L/kg, a clearance of 72 mL/min/kg and a half-life of 12 min. In data set [3] (1 mg/kg), the AUC was determined as 0.04 µM·h, the Cmax was determined as 85 nM, the Tmax amounted to 6 min and the half-life is 12 min. For the same compound, in data set [3] (5 mg/kg), the AUC worked out at 0.255 µM·h, the concentration peaked (Cmax) at 131 nM, the Tmax amounted to 12 min and the half-life is 96 min.
In data set [1] (setting [4]), `CCCC[C@@H]1NC[C@H](C(=O)N[C@H]2CSSC[C@@H](C(=O)N[C@H](Cc3ccc(O)cc3)C(=O)N3C[C@H](C(N)=O)NC(=O)[C@@H]3CCCNC(=N)N)NC(=O)[C@H](CO)NC(=O)[C@H]([C@@H](C)CC)NC(=O)[C@H](CCCNC(=N)N)NC(=O)[C@H](CC(=O)O)NC(=O)[C@H](CCCC)NC(=O)[C@H](CCCNC(=N)N)NC(=O)CNC(=O)CNC(=O)[C@H](Cc3ccccc3)NC(=O)[C@H](Cc3c[nH]cn3)NC2=O)NC1=O` [1-53] ({Piperazin2one(3S-Bu,6R-CO)}-CHFGGR[Nle]DRISC[dY]-X1; disulfide 1-12) displayed a remaining at 1 h, 50 µM of 87% and a remaining at 2 h, 50 µM of 78%. Besides, in data set [2], the clearance stood at 40 mL/min/kg.
As for `CCCC[C@@H]1NC[C@H](C(=O)N[C@H]2CSSC[C@@H](C(=O)N[C@@H](Cc3ccc(O)cc3)C(=O)N3C[C@H](C(N)=O)NC(=O)[C@@H]3CCCNC(=N)N)NC(=O)[C@H](CO)NC(=O)[C@H]([C@@H](C)CC)NC(=O)[C@H](CCCNC(=N)N)NC(=O)[C@H](CC(=O)O)NC(=O)[C@H](CCCC)NC(=O)[C@H](CCCN)NC(=O)CNC(=O)CNC(=O)[C@H](Cc3ccccc3)NC(=O)[C@H](Cc3c[nH]cn3)NC2=O)NC1=O` [1-54] ({Piperazin2one(3S-Bu,6R-CO)}-CHFGG[Orn][Nle]DRISCY-X1; disulfide 1-12), the remaining at 1 h, 50 µM in data set [1] (setting [5]) amounted to 85%. For the same compound, the remaining at 2 h, 50 µM in data set [1] (setting [6]) stood at 82%. Also, in data set [2], the clearance came out at 66 mL/min/kg. For the same compound, in data set [2] (2 mg/kg), the AUC came to 0.277 µM·h, the Vd is 1 L/kg, the clearance is 66 mL/min/kg and the half-life was 12 min.
Consider `CCCC[C@@H]1NC[C@H](C(=O)N[C@H]2CSSC[C@@H](C(=O)N[C@@H](Cc3ccc(O)cc3)C(=O)N3C[C@H](C(N)=O)NC(=O)[C@@H]3CCCNC(=N)N)NC(=O)[C@H](CO)NC(=O)[C@H]([C@@H](C)CC)NC(=O)[C@H](C)NC(=O)[C@H](CC(=O)O)NC(=O)[C@H](CCCC)NC(=O)[C@H](C)NC(=O)CNC(=O)CNC(=O)[C@H](Cc3ccccc3)NC(=O)[C@H](Cc3c[nH]cn3)NC2=O)NC1=O` [1-100] ({Piperazin2one(3S-Bu,6R-CO)}-CHFGGA[Nle]DAISCY-X1; disulfide 1-12), for which the remaining at 1 h, 50 µM in data set [1] (setting [5]) worked out at 6%. For the same compound, in data set [1] (setting [6]), the remaining at 2 h, 50 µM stood at 0%. This compound came in with a clearance in data set [2] of 456 mL/min/kg. In data set [2] (2 mg/kg), the AUC came to 0.042 µM·h, the Vd was 0.8 L/kg, the clearance was found to be 456 mL/min/kg and the half-life is 6 min.
In data set [1] (setting [4]), `CCCC[C@@H]1NC[C@H](C(=O)N[C@H]2CSSC[C@@H](C(=O)N[C@@H](Cc3ccc(O)cc3)C(=O)N3C[C@H](C(N)=O)NC(=O)[C@H]3CCCNC(=N)N)NC(=O)[C@H](CO)NC(=O)[C@H]([C@@H](C)CC)NC(=O)[C@@H](CCCNC(=N)N)NC(=O)[C@H](CC(=O)O)NC(=O)[C@H](CCCC)NC(=O)[C@@H](CCCNC(=N)N)NC(=O)CNC(=O)CNC(=O)[C@H](Cc3ccccc3)NC(=O)[C@H](Cc3c[nH]cn3)NC2=O)NC1=O` [1-118] ({Piperazin2one(3S-Bu,6R-CO)}-CHFGG[dR][Nle]D[dR]ISCY-X2; disulfide 1-12) yielded a remaining at 1 h, 50 µM of 96% and a remaining at 2 h, 50 µM of 92%. The compound also registered a clearance in data set [2] of 10 mL/min/kg.
As to `CCCCCCC(=O)N[C@H]1CSSC[C@@H](C(=O)N[C@@H](Cc2ccc(O)cc2)C(=O)N2C[C@H](C(N)=O)NC(=O)[C@@H]2CCCNC(=N)N)NC(=O)[C@H](CO)NC(=O)[C@H]([C@@H](C)CC)NC(=O)[C@H](CCCNC(=N)N)NC(=O)[C@H](CC(=O)O)NC(=O)[C@H](CCCC)NC(=O)[C@H](CCCNC(=N)N)NC(=O)CNC(=O)[C@@H](C)NC(=O)[C@H](Cc2ccccc2)NC(=O)[C@H](Cc2c[nH]cn2)NC1=O` [1-130] (Heptanoyl-CHF[dA]GR[Nle]DRISCY-X1; disulfide 1-12), the remaining at 1 h, 50 µM in data set [1] (isolated enzyme neprilysin, incubation with human recombinant NEP at 37° C., 1 h, read-out: hNEP % of Starting Material 1 h) turned out to be 75%. Besides, in data set [1] (isolated enzyme neprilysin, incubation with human recombinant NEP at 37° C., 2 h, read-out: hNEP % of Starting Material 2 h), the remaining at 2 h, 50 µM worked out at 56%. This compound also registered a clearance in data set [2] of 92 mL/min/kg.
In data set [1] (setting [4]), `CCCCCCC(=O)N[C@H]1CSSC[C@@H](C(=O)N[C@@H](Cc2ccc(O)cc2)C(=O)N2C[C@H](C(N)=O)NC(=O)[C@@H]2CCCNC(=N)N)NC(=O)[C@H](CO)NC(=O)[C@H]([C@@H](C)CC)NC(=O)[C@H](CCCNC(=N)N)NC(=O)[C@H](CC(=O)O)NC(=O)[C@@H](CCCC)NC(=O)[C@H](CCCNC(=N)N)NC(=O)CNC(=O)CNC(=O)[C@H](Cc2ccccc2)NC(=O)[C@H](Cc2c[nH]cn2)NC1=O` [1-131] (Heptanoyl-CHFGGR[dNle]DRISCY-X1; disulfide 1-12) came in with a remaining at 1 h, 50 µM of 87% and a remaining at 2 h, 50 µM of 70%. This compound had a clearance in data set [2] of 21 mL/min/kg.
Turning to `CCCC[C@@H]1NC[C@H](C(=O)N[C@H]2CSSC[C@@H](C(=O)N[C@@H](Cc3ccc(O)cc3)C(=O)N3C[C@H](C(N)=O)NC(=O)[C@H]3CCCNC(=N)N)NC(=O)[C@H](CO)NC(=O)[C@H]([C@@H](C)CC)NC(=O)[C@H](CCCNC(=N)N)NC(=O)[C@H](CC(=O)O)NC(=O)[C@@H](CCCC)NC(=O)[C@H](CCCNC(=N)N)NC(=O)CNC(=O)[C@@H](C)NC(=O)[C@H](Cc3ccccc3)NC(=O)[C@H](Cc3c[nH]cn3)NC2=O)NC1=O` [1-133] ({Piperazin2one(3S-Bu,6R-CO)}-CHF[dA]GR[dNle]DRISCY-X2; disulfide 1-12), in data set [1] (setting [5]), the remaining at 1 h, 50 µM came out at 96%. Besides, the remaining at 2 h, 50 µM in data set [1] (setting [6]) amounted to 93%. In data set [2], the clearance was determined as 12 mL/min/kg.
